The structures appear in SMILES notation.

The conditions of this data set: pampa; pH 5.0; 30.0 min; 50.0 µM.
Take `Cc1ccc2oc3c(c(=O)c2c1)C(c1ccc(O)cc1)N(CCCN(C)C)C3=O` (stereo unspecified): the apparent permeability coefficient (Papp) (commonly a coefficient for how fast a substance crosses the barrier) was 3.9 ×10⁻⁶ cm/s.

In turn, `COc1ccc(-c2nc3ccc(C4=NNC(=O)CC4C)cc3[nH]2)cc1` (stereo unspecified) gave a Papp of 232 ×10⁻⁶ cm/s.

As to `CC(C)c1nc(CN(C)C(=O)N[C@H](C(=O)N[C@@H](Cc2ccccc2)C[C@H](O)[C@H](Cc2ccccc2)NC(=O)OCc2cncs2)C(C)C)cs1`, the apparent permeability coefficient (Papp) was found to be 844 ×10⁻⁶ cm/s.

Molecule `Cc1n[nH]c(C)c1CCc1nc2c3ccccc3nc(SCC(=O)Nc3ccc(F)cc3)n2n1` registered a Papp of 383 ×10⁻⁶ cm/s.

The molecule `c1ccc(CNc2cc3c(cn2)CN(Cc2cccnc2)CCN3)cc1` had a Papp of 15.8 ×10⁻⁶ cm/s.

The molecule `COc1ccc(C)cc1NC(=O)c1cnc(-c2ccc(F)cc2)nc1-c1ccncc1` yielded a Papp of 926 ×10⁻⁶ cm/s.

As to `Fc1ccccc1-c1nc(NCc2ccc(-c3cccnc3)cc2)c2ccccc2n1`, the apparent permeability (Papp) was > 1000 ×10⁻⁶ cm/s.

On to `COc1ccc(NC(=O)CCCc2nnc3n(CCC(C)C)c(=O)c4sccc4n23)cc1Cl`, for which the Papp is > 1000 ×10⁻⁶ cm/s.

In the case of `CCC(CC)c1cc([C@H]2CN3CC[C@H]2C[C@@H]3CNS(=O)(=O)c2cccs2)nc(-c2ccncc2)n1`, the apparent permeability coefficient (Papp) turned out to be 750 ×10⁻⁶ cm/s.

With `COc1cc(C2CC(=O)Nc3cc4c(cc32)OCCO4)cc(Br)c1OC` (stereo unspecified), the apparent permeability (Papp) is > 1000 ×10⁻⁶ cm/s.

`CCc1cccc(NC(=O)c2cc(-c3ccc[nH]3)n[nH]2)c1`: the apparent permeability (Papp) was 90.2 ×10⁻⁶ cm/s.

Take `COc1ccc2c(c1)CCc1c-2n[nH]c1C(=O)N1CCc2c(nc3cc(-c4ccccc4)[nH]n3c2=O)C1`: the Papp came out at 15.8 ×10⁻⁶ cm/s.

For the molecule `CCc1nnc(NC(=O)c2nc(S(=O)(=O)Cc3ccc(C)cc3)ncc2Cl)s1`, the Papp was determined as 711 ×10⁻⁶ cm/s.

`Cc1c(C)n(Cc2ccccc2)c2ccc(C(=O)OCCN(C)C)cc12`: the apparent permeability coefficient (Papp) is > 1000 ×10⁻⁶ cm/s.

Take `COC(=O)c1ccc(NS(=O)(=O)c2c(C)nc3sccn3c2=O)cc1`: the Papp amounted to 413 ×10⁻⁶ cm/s.

As for `CCOc1ccc(Nc2nc(C)c(NC(=O)c3ccc(C)cc3)c(Nc3ccc(OCC)cc3)n2)cc1`, the Papp was found to be 59 ×10⁻⁶ cm/s.

Regarding `Cc1ccc(C)c(CN2C(=O)c3ccccc3S(=O)c3ccc(C(=O)N4CCN(c5ccccc5F)CC4)cc32)c1` (stereo unspecified), the apparent permeability (Papp) is 932 ×10⁻⁶ cm/s.

Consider `O=S(=O)(c1ccccc1)c1nc(-c2ccc(F)cc2)oc1N1CCCCCC1`, for which the Papp was > 1000 ×10⁻⁶ cm/s.

As to `O=C(NCCCNc1nc(Nc2cccc(NC(=O)N3CCCC3)c2)ncc1I)c1cccs1`, the apparent permeability coefficient (Papp) was found to be 234 ×10⁻⁶ cm/s.

As for `Cc1cc(C)nc(NS(=O)(=O)c2ccc(NC(=S)NC(=O)COc3ccc(Br)cc3Cl)cc2)n1`, the Papp was > 1000 ×10⁻⁶ cm/s.

With `Cc1noc([C@@H]2CN(C(=O)c3nn(C)c4ccccc34)C[C@H]2CO)n1`, the Papp came to 91.5 ×10⁻⁶ cm/s.

Molecule `Cc1cnc(-c2ccccc2C(C)C)nc1NCc1ccc(-n2ccnn2)cc1` registered an apparent permeability coefficient (Papp) of 663 ×10⁻⁶ cm/s.

Turning to `CCOC(=O)c1[nH]c(C)c(CCC(=O)N2CCN(c3cc(C)ccc3C)CC2)c1C`, the Papp was > 1000 ×10⁻⁶ cm/s.

As to `c1ccc(Nc2cc3c(cn2)CN(Cc2ccsc2)CCN3)cc1`, the Papp was 15.3 ×10⁻⁶ cm/s.

As for `O=C(c1ccc2ncccc2c1)N1CCc2c(nc3cc[nH]n3c2=O)C1`, the apparent permeability coefficient (Papp) was determined as 5.6 ×10⁻⁶ cm/s.

In turn, `Cc1ccc(-n2nc3c(=O)n(CCCC(=O)NC(C)c4ccccc4)nc(C)c3c2C)cc1` (stereo unspecified) returned a Papp of 562 ×10⁻⁶ cm/s.

As for `COc1ccc(C(=O)NC2CCCc3c2[nH]c2ccccc32)cc1OC` (stereo unspecified), the apparent permeability (Papp) is 238 ×10⁻⁶ cm/s.

Regarding `O=C(NCC1CCN(Cc2cccc(Cl)c2)CC1)Nc1ccc(F)c(Cl)c1`, the Papp amounted to 638 ×10⁻⁶ cm/s.

Consider `COc1ccc(-n2nc(C)c([C@@H]3C=C[C@@H](NCc4cccc(Cl)c4)C3)c2C)cc1`, for which the Papp is 773 ×10⁻⁶ cm/s.

Take `CSc1ccccc1N1CCN(CCCCCC(=O)NC2CCCc3ccccc32)CC1` (stereo unspecified): the apparent permeability (Papp) was 628 ×10⁻⁶ cm/s.

Consider `CCC1=Nc2cc(C(=O)NCCCOC)ccc2Sc2ccc(Br)cc21`, for which the apparent permeability coefficient (Papp) was > 1000 ×10⁻⁶ cm/s.

Consider `O=c1[nH]c(C2CCCN(CC3CCCCC3)C2)nn1-c1ccc(Cl)cc1` (stereo unspecified), for which the Papp is > 1000 ×10⁻⁶ cm/s.

For the molecule `COc1ccc(-n2nc(C3CCN([S+](=O)([O-])c4cccc(C(F)(F)F)c4)CC3)[nH]c2=O)cc1`, the Papp was 434 ×10⁻⁶ cm/s.

In the case of `CSc1nnc2c3ccccc3n(CCc3ccccc3)c2n1`, the Papp is > 1000 ×10⁻⁶ cm/s.

`Cc1ccc(NC(=O)c2cc(-c3ccc[nH]3)n[nH]2)cc1F` gave a Papp of 235 ×10⁻⁶ cm/s.

For the molecule `CCOC(=O)c1cnc2ccc(-c3cncc(NS(=O)(=O)c4ccccc4)c3)cn12`, the Papp worked out at 546 ×10⁻⁶ cm/s.

For the molecule `COc1ccc(-c2c(-c3cc(C(=O)O)ccn3)ncn2C)cc1`, the Papp is 2.67 ×10⁻⁶ cm/s.

`CNc1oc(-c2cccc3ccccc23)nc1C#N`: the apparent permeability coefficient (Papp) worked out at 645 ×10⁻⁶ cm/s.

As to `COc1ccccc1CNC(=O)CCCn1nc(C)c2c(C)n(-c3ccc(C)cc3)nc2c1=O`, the Papp was 237 ×10⁻⁶ cm/s.

In turn, `CCCCCn1c(CCCNC(=O)c2ccccc2OC)nc2ccccc21` yielded a Papp of 491 ×10⁻⁶ cm/s.

Regarding `CCOc1ccccc1CNS(=O)(=O)c1ccc(-c2cnc(C3CC3)o2)cc1`, the Papp was > 1000 ×10⁻⁶ cm/s.

As for `COc1cc(NC(=O)Cn2c(=O)oc3cc(S(=O)(=O)N4CCCCCC4)ccc32)cc(OC)c1`, the apparent permeability coefficient (Papp) came out at 372 ×10⁻⁶ cm/s.

As to `CN1CCN(c2ccc(Nc3c4ccccc4nc4ccccc34)cc2)CC1`, the Papp worked out at 3.75 ×10⁻⁶ cm/s.

As to `COc1ccc(CN2CCc3c(c(=O)n4ncc(C(=O)N5CCN(c6ccccc6OC)CC5)c4n3C)C2)cc1`, the apparent permeability coefficient (Papp) was 324 ×10⁻⁶ cm/s.

Take `CCc1ccc(C2N=C(N)Nc3nc4ccccc4n32)cc1` (stereo unspecified): the Papp is 1.54 ×10⁻⁶ cm/s.

`COc1ccc(OC)c(-n2c3c(cc(-c4nc(-c5ccc(Cl)cc5)cs4)c2=O)C(=O)CC(C)(C)C3)c1` showed a Papp of 331 ×10⁻⁶ cm/s.

Take `Cn1c(=O)c2c(-c3ccc(Br)cc3)n(CCc3ccccc3)cc2n(C)c1=O`: the apparent permeability (Papp) worked out at 591 ×10⁻⁶ cm/s.

On to `Cc1cc(-c2ccc(C)c(S(=O)(=O)NCC3CCN(Cc4ccc(F)cc4)CC3)c2)on1`, for which the Papp was 486 ×10⁻⁶ cm/s.

Consider `Cc1c(-c2cccc(NC(=O)c3ccc(F)c(F)c3)c2)nc2ncccn12`, for which the apparent permeability coefficient (Papp) stood at 710 ×10⁻⁶ cm/s.

`CC(=O)N1CCc2c(sc3c2c(=O)n(-c2ccccc2Cl)c(=O)n3Cc2cccc(C)c2)C1` registered a Papp of 687 ×10⁻⁶ cm/s.

For the molecule `O=C(CSc1nc(-c2ccc(F)cc2)[nH]c1-c1ccc(F)cc1)Nc1ccc2c(c1)OCCO2`, the apparent permeability (Papp) is 585 ×10⁻⁶ cm/s.

Take `COc1cc(C(=O)NC2CCCc3c2[nH]c2c(Cl)cccc32)cc(OC)c1OC` (stereo unspecified): the apparent permeability (Papp) is 384 ×10⁻⁶ cm/s.

Consider `COc1ccccc1Nc1ccnc(N2CCN(C(=O)c3ccc(C)cc3)CC2)n1`, for which the Papp was > 1000 ×10⁻⁶ cm/s.

Molecule `CN(C)[C@@H]1CCN(c2cccc(Nc3nn4c(=O)c5ccccc5nc4s3)c2)C1` registered a Papp of 24.9 ×10⁻⁶ cm/s.

The molecule `COc1cc2c(c(OC)c1OC)-c1ccc(OC)c(=O)cc1[C@@H](NC(C)=O)CC2` had a Papp of 4.51 ×10⁻⁶ cm/s.

The molecule `Cc1c(CN(C)c2cc(C3CC(O)C3)nc(N)n2)[nH]c2ccccc12` (stereo unspecified) displayed a Papp of 44.8 ×10⁻⁶ cm/s.

In the case of `COCCNc1ncc(-c2cccc(O)c2)c2c1OCC2`, the Papp was 77 ×10⁻⁶ cm/s.

Consider `O=C(NCCc1cnc[nH]1)c1ccc(-c2ncc3cnc(-c4cccc(F)c4)cn23)cc1`, for which the Papp worked out at 5.09 ×10⁻⁶ cm/s.

The molecule `CC(=O)NCCNC(=O)c1ccc(-c2ncc3cnc(-c4cccc(F)c4)cn23)cc1` registered a Papp of 7.62 ×10⁻⁶ cm/s.

Molecule `Cc1cc(Br)ccc1NC(=O)C(NS(=O)(=O)c1cccs1)c1ccccc1` (stereo unspecified) gave a Papp of 79.4 ×10⁻⁶ cm/s.

Molecule `N#Cc1ccc(-c2ccc(CNc3ccc(C4CCNCC4)cc3)o2)cc1` returned an apparent permeability coefficient (Papp) of 236 ×10⁻⁶ cm/s.

On to `CCCNC(=O)c1ccc2c(c1)N=C(C)c1c(C)ccc(C)c1S2`, for which the Papp was > 1000 ×10⁻⁶ cm/s.

Molecule `Cn1c(=O)c2c(-c3ccc(Cl)cc3)n(CCc3ccccc3)cc2n(C)c1=O` came in with an apparent permeability (Papp) of 762 ×10⁻⁶ cm/s.

As for `COC(=O)Nc1nc2ccc(SC(C)C)cc2[nH]1`, the Papp was 510 ×10⁻⁶ cm/s.

For `CC(=O)c1c(C)oc2ccc(N(C(=O)Oc3ccccc3)S(=O)(=O)c3ccccc3)cc12`, the apparent permeability (Papp) was > 1000 ×10⁻⁶ cm/s.

In the case of `COc1cc([C@@H](CC(=O)O)c2ccc(C)c(CN3C[C@@H](C)Oc4ccccc4S3(=O)=O)c2)cc2nnn(C)c12`, the Papp stood at 898 ×10⁻⁶ cm/s.

As to `O=C(CCCN1CCC(O)(c2ccc(Cl)cc2)CC1)c1ccc(F)cc1`, the apparent permeability coefficient (Papp) worked out at 396 ×10⁻⁶ cm/s.

As to `CN1CCN(c2ccc(Nc3nn4c(=O)c5ccccc5nc4s3)cc2)CC1`, the apparent permeability (Papp) turned out to be 5.91 ×10⁻⁶ cm/s.

In the case of `CCc1[nH]c2ccc(CNC(=O)Cc3cnc4c(C)cccn34)cc2c1C`, the apparent permeability coefficient (Papp) amounted to 32.2 ×10⁻⁶ cm/s.

Regarding `Fc1ccc(CN2CCNc3cc(Nc4ccccc4)ncc3C2)cc1F`, the apparent permeability coefficient (Papp) was determined as 340 ×10⁻⁶ cm/s.

Take `CCOc1ccc(CCNC(=O)c2cc3ccccc3n2C)cc1OCC`: the Papp was > 1000 ×10⁻⁶ cm/s.

As to `Fc1ccccc1CNCc1ccc(-c2ccnc3[nH]ccc23)cc1`, the Papp was determined as 266 ×10⁻⁶ cm/s.

Regarding `COc1ccccc1Nc1ccnc(N2CCN(C(=O)c3ccc(F)cc3)CC2)n1`, the Papp worked out at 853 ×10⁻⁶ cm/s.

`COc1cc(NC(=O)c2cc(-c3ccccc3O)no2)cc(OC)c1OC`: the Papp was > 1000 ×10⁻⁶ cm/s.

Consider `C[C@]12N[C@H](Cc3ccccc31)c1ccccc12`, for which the apparent permeability (Papp) was determined as 72.8 ×10⁻⁶ cm/s.

As for `c1coc(-c2nc3ccncc3[nH]2)c1`, the apparent permeability coefficient (Papp) worked out at 5.56 ×10⁻⁶ cm/s.

`COc1ccc(C(=O)NC2CCCc3c2[nH]c2c(Cl)cccc32)cc1OC` (stereo unspecified) came in with a Papp of 483 ×10⁻⁶ cm/s.

In turn, `O=C(Nc1cccnc1)c1cccs1` yielded an apparent permeability (Papp) of 181 ×10⁻⁶ cm/s.

Regarding `COc1ccc(-c2nc3c(c(SCC(=O)Nc4ccc(C(=O)O)cc4)n2)Cc2ccccc2O3)cc1`, the apparent permeability (Papp) is 36.6 ×10⁻⁶ cm/s.

Molecule `Cc1ccc(S(=O)(=O)Nc2nc3ccc(C)cc3nc2Nc2ccc3c(c2)OCO3)cc1` showed a Papp of 334 ×10⁻⁶ cm/s.

Take `COc1ccc(-c2ccc3ncc4c(c3c2)n(-c2ccc(N3CCNCC3)c(C(F)(F)F)c2)c(=O)n4C)cn1`: the apparent permeability (Papp) came out at 153 ×10⁻⁶ cm/s.

Take `CCCN1C(CC(C)C)=NS(=O)(=O)c2cc(NC(=O)c3ccco3)ccc21`: the apparent permeability coefficient (Papp) is 239 ×10⁻⁶ cm/s.

Take `CC(=O)Nc1ccc(NC(=O)C(NS(=O)(=O)c2ccc(Br)s2)c2ccccc2)cc1` (stereo unspecified): the Papp stood at 16.2 ×10⁻⁶ cm/s.

With `COc1ccc(-c2noc(CSc3nnc(Cc4ccccc4)n3-c3ccc(F)cc3)n2)cc1`, the Papp was > 1000 ×10⁻⁶ cm/s.

The molecule `COc1ccc(CN2CCNc3cc(Nc4ccccc4)ncc3C2)cc1` returned a Papp of 119 ×10⁻⁶ cm/s.

Regarding `CC(C)Oc1cccc(C2CC(=O)Nc3cc4c(cc32)OCO4)c1` (stereo unspecified), the Papp turned out to be 785 ×10⁻⁶ cm/s.

For `Cc1ccnc(NC(=O)C2CC(=O)N(c3n[nH]c4cc(Br)ccc34)C2)c1` (stereo unspecified), the apparent permeability coefficient (Papp) was 62.8 ×10⁻⁶ cm/s.

In turn, `O=C(Nc1ccc(Oc2ccnc3[nH]ccc23)c(F)c1)c1cccn(-c2ccc(F)cc2)c1=O` had an apparent permeability (Papp) of 9.36 ×10⁻⁶ cm/s.

As for `O=C(Nc1cccc(OC(F)(F)F)c1)c1cc(-c2ccc[nH]2)n[nH]1`, the apparent permeability coefficient (Papp) amounted to 103 ×10⁻⁶ cm/s.

Molecule `CCOc1cc(CNc2ccc(O)cc2)ccc1OCc1ccc(Cl)cc1` gave an apparent permeability coefficient (Papp) of 187 ×10⁻⁶ cm/s.

As to `Cc1ccc2c(c1)N(S(=O)(=O)c1cc(-c3onc(C)c3C)ccc1C)CCO2`, the apparent permeability (Papp) stood at 226 ×10⁻⁶ cm/s.

For the origin of these results see PubChem BioAssay AID1645871.
